Assay results as given in US8404691B2, “Imidazothiazole derivatives having proline ring structure” (Daiichi Sankyo Company, Limited, priority 2009, dated 2013).

Columns and labels:
[1] = Metabolic stability test (microsomal metabolism); format: in vitro ADME; details: human liver microsomes, 37° C., 30 minutes after addition of NADP+; note: tested at 1.1 µM
Experimental: 100 μL of 100 mM phosphate buffer solution (pH 7.4) containing 3 μM test compound was added to 100 μL of reaction solution containing 100 mM phosphate buffer solution (pH 7.4), 30 mM glucose 6-phosphate, 10 mM MgCl2.6H2O, 3 units/mL glucose 6-phosphate 1-dehydrogenase, and 0.3 to 1.5 mgP/mL human liver microsomes and the mixture was incubated at 37° C. for 20 minutes. Then, 70 μL of 100 mM phosphate buffer solution (pH 7.4) containing 3 mM NADP+ was added and the mixture was further incubated at 37° C. for 30 minutes to conduct a microsomal metabolism test. The compound was quantified by the internal standard method using a quadrupole mass spectrometer connected to a high performance liquid chromatography apparatus. The metabolic stability (residual percentage of compound: MS %) was determined according to the following formula: MS(human)(%)=(peak area ratio of test compound after addition of NADP+ and incubation for 30 minutes)/(peak area ratio of test compound before addition of NADP+)×100.
(peak area ratio: peak area of test compound divided by that of internal standard substance)

[2] = test system: human lung cancer-derived cell line NCI-H460 having wild-type p53; assay: Cell growth inhibition assay (MTT); format: cell-based; details: 72 h, NCI-H460 cells, culturing 3 days, read-out: anti-cellular effect GI50 (50% growth inhibition concentration)
Experimental: A cell growth inhibition assay was conducted using human lung cancer-derived cell line NCI-H460 having wild-type p53.
NCI-H460 cells were suspended in a medium (RPMI1640 medium containing 10% fetal bovine serum) and the suspension was inoculated in an amount of 500 cells/150 μL/well to a 96-well multiwell plate. A test compound was dissolved in DMSO and this solution was diluted with medium to prepare a sample solution (DMSO concentration: 1% or lower). On the next day of inoculation, medium nonsupplemented with the test compound or the sample solution was added in an amount of 50 μL/well. The MTT assay was conducted immediately after the medium was added in an amount of 50 μL on the next day of cell inoculation, and after the sample solution or the medium was added to cells followed by culturing at 37° C. for 3 days in a 5% CO2 atmosphere. The MTT assay was conducted as shown below.
A 5 mg/mL MTT (3-(4,5-dimethylthiazol-2-yl)-2,5-diphenyltetrazolium bromide, Sigma-Aldrich Co., M-2128) solution was prepared using a phosphate buffer solution (Dulbecco's Phosphate-buffered Saline). This MTT solution was added in an amount of 20 μL/well. Then, the plate was cultured at 37° C. for 4 hours in a 5% CO2 atmosphere. The plate was centrifuged at 1200 rpm for 5 minutes and then the culture supernatant was removed by aspiration using a dispenser. DMSO was added in an amount of 150 μL/well to dissolve generated formazan. The plate was stirred using a plate mixer for uniform color development from each well. The absorbance of each well was measured under conditions of OD 540 nm and reference 660 nm using a plate reader (SpectraMax PLUS384, Molecular Devices, CA, USA).
The OD value measured on the day of adding the sample solution was defined as S. The OD value measured three days after addition of the sample solution was defined as T. The OD value measured three days after addition of the DMSO dilution was defined as C. T/C (%) was determined at each concentration according to the calculation formula shown below to prepare a dose response curve, from which 50% growth inhibition concentration (GI50 value) was calculated. T/C(%)=(T−S)/(C−S)×100

Mdm2/p53 binding = biological target: T1, Mdm2/p53 binding (Homo sapiens, UniProt Q00987, L33E); assay: Mdm2/p53 binding assay (HTRF, His-p53 and GST-Mdm2); details: His-p53 (aa 1-132) and GST-Mdm2 (aa 25-108, L33E), 6.25 nM each, 25° C. for 1 hour
T1 construct: Mdm2 amino acids at positions 25 to 108
T1 sequence (Q00987 25-108 L33E): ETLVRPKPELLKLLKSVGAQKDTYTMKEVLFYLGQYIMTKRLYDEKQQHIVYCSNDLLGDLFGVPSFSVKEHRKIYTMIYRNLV
Experimental: Next, a test compound was diluted with DMSO to produce protein buffer solution containing 10% dilution, and this buffer solution was added in an amount of 4 μL/well to the plate.
These dilutions were added in an amount of 8 μL/well (total reaction solution volume: 20 μl/well). Then, the plate was left at 25° C. for 1 hour.
The R value calculated from the well supplemented with His-p53, GST-Mdm2, the test compound, and each antibody was defined as R (sample). The R value calculated from the well supplemented with His-p53, GST-Mdm2, and each antibody but without the test compound was defined as R (control). The R value calculated from the well supplemented with GST-Mdm2, the test compound, and each antibody but without His-p53 was defined as R (background). T/C was calculated from the formula shown below. An IC50 value for Mdm2/p53 binding was calculated by sigmoid fitting. T/C=(R(sample)−R(background))/(R(control)−R(background))

SMILES | MS (human) % (metabolic stability, residual percentage of compound) [1] | GI50 [2] | IC50 (Mdm2/p53 binding)
CC(C)C1=C(C(=O)N2C[C@H](F)C[C@H]2C(=O)N2CC3(CC3)NC[C@@H]2C)SC2=N[C@@](C)(c3ccc(Cl)nc3)[C@@H](c3ccc(Cl)c(F)c3)N21 [Example 2, (6S)-7-[(4R)-1-{[(5R,6S)-5-(4-chloro-3-fluorophenyl)-6-(6-chloropyridin-3-yl)-3-isopropyl-6-methyl-5,6-dihydroimidazo[2,1-b][1,3]thiazol-2-yl]carbonyl}-4-fluoro-L-prolyl]-6-methyl-4,7-diazaspiro[2.5]octane] | 100% |  | 
CC(C)C1=C(C(=O)N2C[C@H](F)C[C@H]2C(=O)N2CC3(CC3)NC[C@H]2C)SC2=N[C@@](C)(c3ccc(Cl)nc3)[C@@H](c3ccc(Cl)c(F)c3)N21 [Example 3, (6R)-7-[(4R)-1-{[(5R,6S)-5-(4-chloro-3-fluorophenyl)-6-(6-chloropyridin-3-yl)-3-isopropyl-6-methyl-5,6-dihydroimidazo[2,1-b][1,3]thiazol-2-yl]carbonyl}-4-fluoro-L-prolyl]-6-methyl-4,7-diazaspiro[2.5]octane] | 68% |  | 
CC[C@@H]1CN(C(=O)C(F)(F)F)C2(CC2)CN1C(=O)[C@@H]1C[C@@H](F)CN1C(=O)C1=C(C(C)C)N2C(=N[C@@](C)(c3ccc(Cl)nc3)[C@H]2c2ccc(Cl)c(F)c2)S1 [Example 5, (6R)-7-[(4R)-1-{[(5R,6S)-5-(4-chloro-3-fluorophenyl)-6-(6-chloropyridin-3-yl)-3-isopropyl-6-methyl-5,6-dihydroimidazo[2,1-b][1,3]thiazol-2-yl]carbonyl}-4-fluoro-L-prolyl]-6-ethyl-4-(trifluoroacetyl)-4,7-diazaspiro[2.5]octane] |  | < 400 nM | 5.3 nM
CC[C@@H]1CNC2(CC2)CN1C(=O)[C@@H]1C[C@@H](F)CN1C(=O)C1=C(C(C)C)N2C(=N[C@@](C)(c3ccc(Cl)nc3)[C@H]2c2ccc(Cl)c(F)c2)S1 [Example 6, (6R)-7-[(4R)-1-{[(5R,6S)-5-(4-chloro-3-fluorophenyl)-6-(6-chloropyridin-3-yl)-3-isopropyl-6-methyl-5,6-dihydroimidazo[2,1-b][1,3]thiazol-2-yl]carbonyl}-4-fluoro-L-prolyl]-6-ethyl-4,7-diazaspiro[2.5]octane] | 69% |  | 
CC(C)C1=C(C(=O)N2C[C@H](F)C[C@H]2C(=O)N2CC3(CC3)NCC23CC3)SC2=N[C@@](C)(c3ccc(Cl)nc3)[C@@H](c3ccc(Cl)c(F)c3)N21 [Example 8, 4-[(4R)-1-{[(5R,6S)-5-(4-chloro-3-fluorophenyl)-6-(6-chloropyridin-3-yl)-3-isopropyl-6-methyl-5,6-dihydroimidazo[2,1-b][1,3]thiazol-2-yl]carbonyl}-4-fluoro-L-prolyl]-4,9-diazaspiro[2.2.2.2]decane] | 95% | < 400 nM | 2.2 nM
CC(C)C1=C(C(=O)N2C[C@H](F)C[C@H]2C(=O)N2CC3(CC3)NC[C@@H]2CO)SC2=N[C@@](C)(c3ccc(Cl)nc3)[C@@H](c3ccc(Cl)c(F)c3)N21 [Example 11, {(6R)-7-[(4R)-1-{[(5R,6S)-5-(4-chloro-3-fluorophenyl)-6-(6-chloropyridin-3-yl)-3-isopropyl-6-methyl-5,6-dihydroimidazo[2,1-b][1,3]thiazol-2-yl]carbonyl}-4-fluoro-L-prolyl]-4,7-diazaspiro[2.5]oct-6-yl}methanol] | 100% | 400 to 2500 nM | 3.2 nM

The next lines start with the values.

MS (human) % (metabolic stability, residual percentage of compound) [1] | GI50 [2] | IC50 (Mdm2/p53 binding) | SMILES
77% | < 400 nM | 2.8 nM | CC(C)C1=C(C(=O)N2C[C@H](F)C[C@H]2C(=O)N2CCNC3(CC3)C2)SC2=N[C@@](C)(c3ccc(Cl)nc3)[C@@H](c3ccc(Cl)c(F)c3)N21 [Example 1, 7-[(4R)-1-{[(5R,6S)-5-(4-chloro-3-fluorophenyl)-6-(6-chloropyridin-3-yl)-3-isopropyl-6-methyl-5,6-dihydroimidazo[2,1-b][1,3]thiazol-2-yl]carbonyl}-4-fluoro-L-prolyl]-4,7-diazaspiro[2.5]octane]
100% |  |  | CC[C@H]1CNC2(CC2)CN1C(=O)[C@@H]1C[C@@H](F)CN1C(=O)C1=C(C(C)C)N2C(=N[C@@](C)(c3ccc(Cl)nc3)[C@H]2c2ccc(Cl)c(F)c2)S1 [Example 4, (6S)-7-[(4R)-1-{[(5R,6S)-5-(4-chloro-3-fluorophenyl)-6-(6-chloropyridin-3-yl)-3-isopropyl-6-methyl-5,6-dihydroimidazo[2,1-b][1,3]thiazol-2-yl]carbonyl}-4-fluoro-L-prolyl]-6-ethyl-4,7-diazaspiro[2.5]octane]
100% | 400 to 2500 nM | 3.6 nM | CC(C)C[C@@H]1CNC2(CC2)CN1C(=O)[C@@H]1C[C@@H](F)CN1C(=O)C1=C(C(C)C)N2C(=N[C@@](C)(c3ccc(Cl)nc3)[C@H]2c2ccc(Cl)c(F)c2)S1 [Example 7, (6R)-7-[(4R)-1-{[(5R,6S)-5-(4-chloro-3-fluorophenyl)-6-(6-chloropyridin-3-yl)-3-isopropyl-6-methyl-5,6-dihydroimidazo[2,1-b][1,3]thiazol-2-yl]carbonyl}-4-fluoro-L-prolyl]-6-isobutyl-4,7-diazaspiro[2.5]octane]
80% | < 400 nM | 4.1 nM | CC(C)C1=C(C(=O)N2CC(F)(F)C[C@H]2C(=O)N2CC3(CC3)NC[C@@H]2C)SC2=N[C@@](C)(c3ccc(Cl)nc3)[C@@H](c3ccc(Cl)c(F)c3)N21 [Example 9, (6S)-7-(1-{[(5R,6S)-5-(4-chloro-3-fluorophenyl)-6-(6-chloropyridin-3-yl)-3-isopropyl-6-methyl-5,6-dihydroimidazo[2,1-b][1,3]thiazol-2-yl]carbonyl}-4,4-difluoro-L-prolyl)-6-methyl-4,7-diazaspiro[2.5]octane]
48% | < 400 nM | 14 nM | CC(C)C1=C(C(=O)N2CC(F)(F)C[C@H]2C(=O)N2CC3(CC3)NC[C@H]2C)SC2=N[C@@](C)(c3ccc(Cl)nc3)[C@@H](c3ccc(Cl)c(F)c3)N21 [Example 10, (6R)-7-(1-{[(5R,6S)-5-(4-chloro-3-fluorophenyl)-6-(6-chloropyridin-3-yl)-3-isopropyl-6-methyl-5,6-dihydroimidazo[2,1-b][1,3]thiazol-2-yl]carbonyl}-4,4-difluoro-L-prolyl)-6-methyl-4,7-diazaspiro[2.5]octane]
89% | < 400 nM |  | CC(C)C1=C(C(=O)N2C[C@H](F)C[C@H]2C(=O)N2CC3(CC3)NC[C@@H]2C)SC2=N[C@@](C)(c3ccc(Cl)cc3)[C@@H](c3ccc(Cl)c(F)c3)N21 [Example 24]
47% | < 400 nM |  | CC(C)C1=C(C(=O)N2C[C@H](F)C[C@H]2C(=O)N2CC3(CC3)NC[C@H]2C)SC2=N[C@@](C)(c3ccc(Cl)cc3)[C@@H](c3ccc(Cl)c(F)c3)N21 [Example 25]
